Data reported in ChEMBL document CHEMBL1151474, “Replication of Colonic Crohn's Disease Mucosal Escherichia coli Isolates within Macrophages and Their Susceptibility to Antibiotics” (Antimicrob Agents Chemother, 2008).
In brackets after ≈: the same amount, converted by molar mass. Activity calls are given as the source filed them. The calls are words filed in the database; no cut-off is given here.

Assays:
[1] = test system: Escherichia coli; experiment: Antibacterial activity against gentamicin-treated internalized Escherichia coli isolate HM615 in mouse J774A1 cells isolated from colonic mucosal biopsies of patient with Crohn's disease assessed as intracellular killing of bacteria at 10% compound Cmax after 3 hrs; format: functional, J774.A1
[2] = test system: Escherichia coli; experiment: Antibacterial activity against gentamicin-treated internalized Escherichia coli isolate HM605 in mouse J774A1 cells isolated from colonic mucosal biopsies of patient with Crohn's disease assessed as intracellular killing of bacteria at 0.1 to 100 ug/ml after 3 hrs; format: functional, organism-based; conditions: J774.A1
[3] = test system: Escherichia coli; experiment: Antibacterial activity against extracellular Escherichia coli isolate HM605 isolated from colonic mucosal biopsies of patient with Crohn's disease at 0.1 to 100 ug/ml after 3 hrs; format: functional, organism-based
[4] = test system: Escherichia coli; experiment: Antibacterial activity against Escherichia coli isolate HM605 isolated from colonic mucosal biopsies of patient with Crohn's disease after 24 hrs by Etest antibiotic concentration gradient method; format: functional; conditions: isolate HM605, 24 h
[5] = test system: J774.A1; experiment: Cytotoxicity against mouse J774A1 cells assessed as release of adenylate kinase at 100 ug/ml after 3 hrs […] relative to control; format: cell-based; conditions: j774.a1, 3 h
[6] = test system: Escherichia coli; experiment: Antibacterial activity against Escherichia coli isolate HM605 isolated from colonic mucosal biopsies of patient with Crohn's disease assessed as killing of bacteria at 100 ug/ml; format: functional
[7] = test system: Escherichia coli; experiment: Antibacterial activity against extracellular Escherichia coli isolate HM605 isolated from colonic mucosal biopsies of patient with Crohn's disease assessed as colony count at 0.1 to 100 ug/ml after 3 hrs; format: functional, organism-based
[8] = Cmax in healthy human at 500 mg administered orally; format: ADME, organism-based; design: dose 500 mg, route oral; conditions: in vivo, po
[9] = test system: Escherichia coli; experiment: Antibacterial activity against Escherichia coli ATCC 25922 after 24 hrs by Etest antibiotic concentration gradient method; format: functional, organism-based
[10] = test system: Escherichia coli; experiment: Antibacterial activity against gentamicin-treated internalized Escherichia coli isolate HM605 in mouse J774A1 cells isolated from colonic mucosal biopsies of patient with Crohn's disease assessed as intracellular killing of bacteria at 0.1 to 100 ug/ml after 24 hrs; format: functional, organism-based; conditions: J774.A1
[11] = test system: Escherichia coli; experiment: Antibacterial activity against extracellular Escherichia coli isolate HM605 isolated from colonic mucosal biopsies of patient with Crohn's disease at 0.01 to 10 ug/ml after 3 hrs; format: functional, organism-based
[12] = test system: Escherichia coli; experiment: Antibacterial activity against mucosa-associated Escherichia coli isolates isolated from patients with Crohn's disease by disk diffusion method; format: functional
[13] = test system: Escherichia coli; experiment: Antibacterial activity against gentamicin-treated internalized Escherichia coli isolate HM605 in mouse J774A1 cells isolated from colonic mucosal biopsies of patient with Crohn's disease assessed as intracellular killing of bacteria at 0.1 to 100 ug/ml after 6 hrs; format: functional, organism-based; conditions: J774.A1
[14] = test system: Escherichia coli; experiment: Antibacterial activity against gentamicin-treated internalized Escherichia coli isolate HM580 in mouse J774A1 cells isolated from colonic mucosal biopsies of patient with Crohn's disease assessed as intracellular killing of bacteria at 10% compound Cmax after 3 hrs; format: functional, J774.A1
[15] = test system: Escherichia coli; experiment: Antibacterial activity against gentamicin-treated internalized Escherichia coli isolate HM605 in mouse J774A1 cells isolated from colonic mucosal biopsies of patient with Crohn's disease assessed as intracellular killing of bacteria at 10% compound Cmax after 3 hrs; format: functional, J774.A1
[16] = test system: Escherichia coli; experiment: Antibacterial activity against gentamicin-treated internalized Escherichia coli isolate LF82 in mouse J774A1 cells isolated from chronic ileal lesions of patient with Crohn's disease assessed as intracellular killing of bacteria at 10% compound Cmax after 3 hrs; format: functional, J774.A1
[17] = test system: Escherichia coli; experiment: Antibacterial activity against Escherichia coli isolate HM605 isolated from colonic mucosal biopsies of patient with Crohn's disease
[18] = test system: Escherichia coli; experiment: Antibacterial activity against gentamicin-treated internalized Escherichia coli isolate HM605 isolated from colonic mucosal biopsies of patient with Crohn's disease in mouse J774A1 cells assessed as intracellular killing of bacteria at 3.2 ug/ml after 3 hrs; format: functional, J774.A1
[19] = test system: Escherichia coli; experiment: Antibacterial activity against Escherichia coli isolate HM95 isolated from ileal mucosal biopsies of patient with Crohn's disease after 24 hrs by Etest antibiotic concentration gradient method; format: functional; conditions: isolate HM95, 24 h
[20] = test system: Escherichia coli; experiment: Antibacterial activity against Escherichia coli isolate HM615 isolated from colonic mucosal biopsies of patient with Crohn's disease after 24 hrs by Etest antibiotic concentration gradient method; format: functional; conditions: isolate HM615, 24 h
[21] = test system: Escherichia coli; experiment: Antibacterial activity against Escherichia coli isolate HM580 isolated from colonic mucosal biopsies of patient with Crohn's disease after 24 hrs by Etest antibiotic concentration gradient method; format: functional; conditions: isolate HM580, 24 h
[22] = test system: Escherichia coli; experiment: Antibacterial activity Escherichia coli isolate HM419 isolated from ileo-colonic mucosal biopsies of patient with Crohn's disease after 24 hrs by Etest antibiotic concentration gradient method; format: functional; conditions: isolate HM419, 24 h
[23] = test system: Escherichia coli; experiment: Antibacterial activity against mucosa-associated Escherichia coli isolate HM456 isolated from patient with irritable bowel syndrome or sporadic polyps after 24 hrs by Etest antibiotic concentration gradient method; format: functional; conditions: isolate HM456, 24 h
[24] = Cmax in patient with Crohn's disease at 500 mg administered orally; format: ADME, organism-based; design: dose 500 mg, route oral; conditions: human, in vivo, po
[25] = test system: Escherichia coli; experiment: Antibacterial activity against Escherichia coli isolates isolated from patients with Crohn's disease at 15 ug/disk by susceptibility testing disk method; format: functional
[26] = test system: Escherichia coli; experiment: Antibacterial activity against mucosa-associated Escherichia coli isolate HM428 isolated from patient with irritable bowel syndrome or sporadic polyps after 24 hrs by Etest antibiotic concentration gradient method; format: functional; conditions: isolate HM428, 24 h
[27] = test system: Escherichia coli; experiment: Antibacterial activity against mucosa-associated Escherichia coli isolate HM454 isolated from patient with irritable bowel syndrome or sporadic polyps after 24 hrs by Etest antibiotic concentration gradient method; format: functional; conditions: isolate HM454, 24 h
[28] = test system: Escherichia coli; experiment: Antibacterial activity Escherichia coli isolate HM413 isolated from ileo-colonic mucosal biopsies of patient with Crohn's disease after 24 hrs by Etest antibiotic concentration gradient method; format: functional; conditions: isolate HM413, 24 h
[29] = test system: Escherichia coli; experiment: Antibacterial activity against Escherichia coli isolate HM154 isolated from colonic mucosal biopsies of patient with Crohn's disease after 24 hrs by Etest antibiotic concentration gradient method; format: functional; conditions: isolate HM154, 24 h
[30] = test system: Escherichia coli; experiment: Antibacterial activity against gentamicin-treated internalized Escherichia coli isolate HM605 isolated from colonic mucosal biopsies of patient with Crohn's disease in mouse J774A1 cells assessed as intracellular killing of bacteria at 0.4 ug/ml after 3 hrs; format: functional, J774.A1
[31] = test system: Escherichia coli; experiment: Antibacterial activity against gentamicin-treated internalized Escherichia coli isolate HM605 isolated from colonic mucosal biopsies of patient with Crohn's disease in mouse J774A1 cells assessed as intracellular killing of bacteria at 3 ug/ml after 3 hrs; format: functional, J774.A1
[32] = test system: Escherichia coli; experiment: Antibacterial activity against Escherichia coli K-12 after 24 hrs by Etest antibiotic concentration gradient method; format: functional; conditions: K-12, 24 h
[33] = test system: J774.A1; experiment: Cytotoxicity against mouse J774A1 cells assessed as macrophage number at 3 ug/ml after 3 hrs by total cell protein assay; format: cell-based; conditions: j774.a1, 3 h
[34] = test system: Escherichia coli; experiment: Antibacterial activity against Escherichia coli isolates isolated from patients with Crohn's disease at 5 ug/disk by susceptibility testing disk method; format: functional

Structure (SMILES)	Activity [1] [%]	MIC [4] [mg/L]	Activity [5] [%]	Cmax [8] [µg/mL]	Activity [11]	Activity [12] [%]	Activity [14] [%]	Activity [15] [%]	Activity [16] [%]	MBC [17] [mg/L]	MIC [19] [mg/L]	MIC [20] [mg/L]	MIC [21] [mg/L]	MIC [22] [mg/L]	MIC [23] [mg/L]	MIC [26] [mg/L]	MIC [27] [mg/L]	MIC [28] [mg/L]	MIC [29] [mg/L]	also measured
CC1(C)S[C@@H]2[C@H](NC(=O)[C@H](N)c3ccccc3)C(=O)N2[C@H]1C(=O)O [AMPICILLIN]	13.8	> 256	90	3.2	Active	95	9.6	20.4	10.9	> 100										Activity [2]: inactive; Activity [3]: Active; Activity [6]: 99.8%; Activity [7]: Active; Activity [9]: Active; Activity [10]: inactive; Activity [13]: inactive; Activity [18]: 11.1%
CC[C@H]1OC(=O)[C@H](C)[C@@H](O[C@H]2C[C@@](C)(OC)[C@@H](O)[C@H](C)O2)[C@H](C)[C@@H](O[C@@H]2O[C@H](C)C[C@H](N(C)C)[C@H]2O)[C@](C)(O)C[C@@H](C)CN(C)[C@H](C)[C@@H](O)[C@]1(C)O [AZITHROMYCIN]		3 (≈ 4.01 µM)	90		Active					5 (≈ 6.68 µM)	≤ 2	≤ 2	≤ 2	≤ 2	≤ 2	≤ 2	≤ 2	≤ 2	≤ 2	Cmax [24]: 0.4 µg/mL; Activity [25]: 78%; Activity [30]: 41%
O=C(N[C@H](CO)[C@H](O)c1ccc([N+](=O)[O-])cc1)C(Cl)Cl [CHLORAMPHENICOL]			90			62														
CC[C@H]1OC(=O)[C@H](C)[C@@H](O[C@H]2C[C@@](C)(OC)[C@@H](O)[C@H](C)O2)[C@H](C)[C@@H](O[C@@H]2O[C@H](C)C[C@H](N(C)C)[C@H]2O)[C@](C)(OC)C[C@@H](C)C(=O)[C@H](C)[C@@H](O)[C@]1(C)O [CLARITHROMYCIN]	81.8	16 (≈ 21.4 µM)	90	3	Active		57.5	33.5	55.2	3 (≈ 4.01 µM)	≥ 16	≥ 16	≥ 16	≥ 16	≥ 16	≥ 16	≥ 16	≥ 16	≥ 16	Activity [31]: 62.1%; MIC [32]: 24 mg/L (≈ 32.1 µM); Activity [33]: 73.4; Activity [34]: 0%
CCn1cc(C(=O)O)c(=O)c2ccc(C)nc21 [NALIDIXIC ACID]			90			100														
CC1(C)S[C@@H]2[C@H](NC(=O)Cc3ccccc3)C(=O)N2[C@H]1C(=O)O [PENICILLIN G]			90			0														
